Results as given in patent US10435369B2, “Tricyclic sulfones as ROR gamma modulators” (BRISTOL-MYERS SQUIBB COMPANY, priority 2016, dated 2019).
Like-named read-outs stand apart in the source and are kept apart here.

Target: RORγ receptor (Homo sapiens, UniProt P51449)
Assay: RORγ Gal4 reporter assay (Gal4-luciferase, inverse agonist activity)
Assay type: cell-based
Description: General RORγ Gal4 Reporter Assay
IC50 values were determined.

[1] = Jurkat cells stably over-expressing hRORγ, Gal4-luciferase reporter, overnight incubation, read-out: RORγ Gal4, IC50

RORγ receptor, sequence (P51449 269-508): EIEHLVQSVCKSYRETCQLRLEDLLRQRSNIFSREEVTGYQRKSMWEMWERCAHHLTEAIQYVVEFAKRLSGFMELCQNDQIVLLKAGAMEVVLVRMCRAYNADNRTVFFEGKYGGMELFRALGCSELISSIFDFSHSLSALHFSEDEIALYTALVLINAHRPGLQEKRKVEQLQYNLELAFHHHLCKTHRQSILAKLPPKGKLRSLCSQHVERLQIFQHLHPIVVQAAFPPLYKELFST

Row | Compound | IC50 [nM] | IC50 [1] [nM]
1 | CNC(=O)CN[C@@H]1CC[C@@]2(S(=O)(=O)c3ccc(F)cc3)c3ccc(C(F)(C(F)(F)F)C(F)(F)F)cc3CC[C@@H]12 [Example 208, 2-(((3R,3 aS,9bS)-9b-((4-fluorophenyl)sulfonyl)-7-(perfluoropropan-2-yl)-2,3,3a,4,5,9b-hexahydro-1H-cyclopenta[a]naphthalen-3-yl)amino)-N-methylacetamide] | 16 | 
2 | CNC(=O)CN(CC(=O)NC)[C@@H]1CC[C@@]2(S(=O)(=O)c3ccc(F)cc3)c3ccc(C(F)(C(F)(F)F)C(F)(F)F)cc3CC[C@@H]12 [Example 209, 2,2′-(((3R,3aS,9bS)-9b-((4-fluorophenyl)sulfonyl)-7-(perfluoropropan-2-yl)-2,3,3a,4,5,9b-hexahydro-1H-cyclopenta[a]naphthalen-3-yl)azanediyl)bis(N-methylacetamide)] |  | 166
3 | CN(C)[C@@H]1CC[C@@]2(S(=O)(=O)c3ccc(F)cc3)c3ccc(C(F)(C(F)(F)F)C(F)(F)F)cc3CC[C@@H]12 [Example 212] |  | 160
4 | CC(C)(O)CC(=O)N[C@@H]1CC[C@@]2(S(=O)(=O)c3ccc(F)cc3)c3ccc(C(F)(C(F)(F)F)C(F)(F)F)cc3NC[C@@H]12 [Example 221] |  | 45
5 | CC(C)(O)CN1C(=O)CCN1C(=O)N[C@@H]1CC[C@@]2(S(=O)(=O)c3ccc(F)cc3)c3ccc(C(F)(C(F)(F)F)C(F)(F)F)cc3CC[C@@H]12 [Example 229, N-((3R,3aS,9bS)-9b-((4-fluorophenyl)sulfonyl)-7-(perfluoropropan-2-yl)-2,3,3a,4,59b-hexahydro-1H-cyclopenta[a]naphthalen-3-yl)-2-(2-hydroxy-2-methylpropyl)-3-oxopyrazolidin-1-carboxamide] |  | 5
6 | [2H]C([2H])([2H])C(=O)N1CC(O)(CC(=O)N[C@@H]2CC[C@@]3(S(=O)(=O)c4ccc(F)cc4)c4ccc(C(F)(C(F)(F)F)C(F)(F)F)cc4CC[C@@H]23)C1 [Example 231, 2-(1-(acetyl-d3)-3-hydroxyazetidin-3-yl)-N-((3R,3aS,9bS)-9b-((4-fluorophenyl)sulfonyl)-7-(perfluoropropan-2-yl)-2,3,3a,4,5,9b-hexahydro-1H-cyclopenta[a]naphthalen-3-yl)acetamide] | 65 | 
7 | O=C1OCCN1[C@@H]1CC[C@@]2(S(=O)(=O)c3ccc(F)cc3)c3ccc(C(F)(C(F)(F)F)C(F)(F)F)cc3CC[C@@H]12 [Example 240, 3-((3R,3aS,9bS)-9b-((4-fluorophenyl)sulfonyl)-7-(perfluoropropan-2-yl)-2,3,3a,4,5,9b-hexahydro-1H-cyclopenta[a]naphthalen-3-yl)oxazolidin-2-one] |  | 9
8 | O=C(CO)N1CCC(O)(C(=O)N[C@@H]2CC[C@@]3(S(=O)(=O)c4ccc(F)cc4)c4ccc(C(F)(C(F)(F)F)C(F)(F)F)cc4CC[C@@H]23)CC1 [Example 256] |  | 4
9 | CC(NC(=O)c1c[nH]cn1)[C@@H]1CC[C@@]2(S(=O)(=O)c3ccc(F)cc3)c3ccc(C(F)(C(F)(F)F)C(F)(F)F)cc3CC[C@@H]12 (some centres unmarked) [Example 257] |  | 27
10 | CC(NC(=O)c1ccncn1)[C@@H]1CC[C@@]2(S(=O)(=O)c3ccc(F)cc3)c3ccc(C(F)(C(F)(F)F)C(F)(F)F)cc3CC[C@@H]12 (some centres unmarked) [Example 261] |  | 34
11 | CC(NC(=O)c1ccncn1)[C@@H]1CC[C@@]2(S(=O)(=O)c3ccc(F)cc3)c3ccc(C(F)(C(F)(F)F)C(F)(F)F)cc3CC[C@@H]12 (some centres unmarked) [Example 262] |  | 87
12 | CC(NC(=O)c1ccncc1)[C@@H]1CC[C@@]2(S(=O)(=O)c3ccc(F)cc3)c3ccc(C(F)(C(F)(F)F)C(F)(F)F)cc3CC[C@@H]12 (some centres unmarked) [Example 263] |  | 22
13 | CC(NC(=O)c1ccncc1)[C@@H]1CC[C@@]2(S(=O)(=O)c3ccc(F)cc3)c3ccc(C(F)(C(F)(F)F)C(F)(F)F)cc3CC[C@@H]12 (some centres unmarked) [Example 264] |  | 82
14 | CC(NC(=O)[C@@H]1C[C@@H](F)C(=O)N1)[C@@H]1CC[C@@]2(S(=O)(=O)c3ccc(F)cc3)c3ccc(C(F)(C(F)(F)F)C(F)(F)F)cc3CC[C@@H]12 (some centres unmarked) [Example 267] |  | 15
